From patent publication US5840684A, “Glycopeptide antibiotic derivatives” (Eli Lilly and Company, priority 1995, dated 1998)
≈ marks a conversion by molar mass, not a printed value.

Experiments:
[1] = system: Staphylococcus aureus 489; assay: broth micro-dilution MIC; format: cell-based
Description: (§1) The MIC's were determined using a standard broth micro-dilution assay.

[2] = system: Staphylococcus aureus X778; assay: broth micro-dilution MIC; format: cell-based
Description: as §1

[3] = system: Entercoccus faecium 180-1; assay: broth micro-dilution MIC; format: cell-based
Description: as §1

[4] = system: Streptococcus pyogenes C203; assay: broth micro-dilution MIC; format: cell-based
Description: as §1

Entercoccus faecium 276 = assay: broth micro-dilution MIC; format: cell-based
Description: as §1

[5] = system: Staphylococcus aureus 446; assay: broth micro-dilution MIC; format: cell-based
Description: as §1

[6] = system: Staphylococcus aureus 447; assay: broth micro-dilution MIC; format: cell-based
Description: as §1

[7] = system: Staphylococcus aureus 491; assay: broth micro-dilution MIC; format: cell-based
Description: as §1

[8] = system: Staphylococcus aureus SA1199A; assay: broth micro-dilution MIC; format: cell-based
Description: as §1

[9] = system: Staphylococcus aureus X400; assay: broth micro-dilution MIC; format: cell-based
Description: as §1

[10] = system: Staphylococcus aureus SA1199; assay: broth micro-dilution MIC; format: cell-based
Description: as §1

[11] = system: vancomycin-susceptible enterococci; assay: broth micro-dilution, mean geometric MIC; format: cell-based, Enterococcus faecium and Enterococcus faecalis; settings: enterococci, 24-hour incubation
[12] = system: Staphylococcus haemolyticus 105; assay: broth micro-dilution MIC; format: cell-based
Description: (§2) The formula I compounds have in vitro and in vivo activity against Gram-positive pathogenic bacteria. The MIC's were determined using a standard broth micro-dilution assay.

Entercoccus faecium 180 = assay: broth micro-dilution MIC; format: cell-based; settings: Entercoccus faecium 180
Description: as §2

[13] = system: Staphylococcus haemolyticus 415; assay: broth micro-dilution MIC; format: cell-based
Description: as §2

Entercoccus faecium 2041 = assay: broth micro-dilution MIC; format: cell-based; settings: Entercoccus faecium 2041
Description: as §2

[14] = system: Streptococcus pneumoniae P1; assay: broth micro-dilution MIC; format: cell-based
Description: as §2

[15] = system: Enterococcus gallinarum 245; assay: broth micro-dilution MIC; format: cell-based; settings: Enterococcus gallinarum 245
Description: as §2

[16] = system: Staphylococcus epidermidis 270; assay: broth micro-dilution MIC; format: cell-based
Description: as §2

[17] = system: vancomycin-resistant enterococci; assay: broth micro-dilution, mean geometric MIC; format: cell-based, Enterococcus faecium and Enterococcus faecalis; settings: enterococci, 24-hour incubation
[18] = system: Staphylococcus aureus SA1199B; format: cell-based
Description: as §1

[19] = system: Staphylococcus aureus S13E; format: cell-based
Description: as §1

SMILES	MIC [1]	MIC [2]	MIC [3]	MIC [4]	MIC (Entercoccus faecium 276)	MIC [5]	MIC [6]	MIC [7]	MIC [8]	MIC [9]	MIC [10]	mean geometric MIC, Vancomycin Sensitive Strains [11]	MIC [12]	MIC (Entercoccus faecium 180)	MIC [13]	MIC (Entercoccus faecium 2041)	MIC [14]	MIC [15]	MIC [16]	mean geometric MIC, Vancomycin Resistant Strains [17]	also measured
CN[C@H](CC(C)C)C(=O)N[C@H]1C(=O)N[C@@H](CC(N)=O)C(=O)N[C@H]2C(=O)N[C@H]3C(=O)N[C@H](C(=O)N[C@H](C(=O)O)c4cc(O)cc(O)c4-c4cc3ccc4O)[C@H](O[C@H]3C[C@](C)(N)[C@@H](O)[C@H](C)O3)c3ccc(c(Cl)c3)Oc3cc2cc(c3O[C@@H]2O[C@H](CO)[C@@H](O)[C@H](O)[C@H]2O[C@H]2C[C@](C)(NCc3ccc(Oc4ccc(C(C)(C)C)cc4)cc3)[C@@H](O)[C@H](C)O2)Oc2ccc(cc2Cl)[C@H]1O [Compound 96]	1 µg/mL (≈ 0.546 µM)	1 µg/mL (≈ 0.546 µM)	0.25 µg/mL (≈ 0.137 µM)	≤ 0.06 µg/mL	0.5 µg/mL (≈ 0.273 µM)	1 µg/mL (≈ 0.546 µM)	1 µg/mL (≈ 0.546 µM)	1 µg/mL (≈ 0.546 µM)	≤ 0.06 µg/mL	2 µg/mL (≈ 1.09 µM)	2 µg/mL (≈ 1.09 µM)	0.11 µg/mL	2 µg/mL (≈ 1.09 µM)	0.5 µg/mL (≈ 0.273 µM)	2 µg/mL (≈ 1.09 µM)	1 µg/mL (≈ 0.546 µM)	≤ 0.06 µg/mL	2 µg/mL (≈ 1.09 µM)	2 µg/mL (≈ 1.09 µM)	1.4 µg/mL	MIC [18]: 1 µg/mL (≈ 0.546 µM); MIC [19]: 1 µg/mL (≈ 0.546 µM)
CCCOC(c1ccccc1)c1ccc(CNC2(C)CC(OC3C(Oc4c5cc6cc4Oc4ccc(cc4Cl)C(OC4CC(C)(N)C(O)C(C)O4)C4NC(=O)C(NC(=O)C6NC(=O)C(CC(N)=O)NC(=O)C(NC(=O)C(CC(C)C)NC)C(O)c6ccc(c(Cl)c6)O5)c5ccc(O)c(c5)-c5c(O)cc(O)cc5C(C(=O)O)NC4=O)OC(CO)C(O)C3O)OC(C)C2O)cc1 (stereo not drawn) [Compound 128]	1 µg/mL (≈ 0.546 µM)	1 µg/mL (≈ 0.546 µM)	0.125 µg/mL (≈ 0.0683 µM)	≤ 0.06 µg/mL	1 µg/mL (≈ 0.546 µM)	4 µg/mL (≈ 2.18 µM)	1 µg/mL (≈ 0.546 µM)	2 µg/mL (≈ 1.09 µM)	0.5 µg/mL (≈ 0.273 µM)	1 µg/mL (≈ 0.546 µM)	0.5 µg/mL (≈ 0.273 µM)	0.11 µg/mL	1 µg/mL (≈ 0.546 µM)	1 µg/mL (≈ 0.546 µM)	2 µg/mL (≈ 1.09 µM)	0.5 µg/mL (≈ 0.273 µM)	≤ 0.06 µg/mL	2 µg/mL (≈ 1.09 µM)	1 µg/mL (≈ 0.546 µM)	2.0 µg/mL	MIC [18]: 2 µg/mL (≈ 1.09 µM); MIC [19]: 1 µg/mL (≈ 0.546 µM)
CNC(CC(C)C)C(=O)NC1C(=O)NC(CC(N)=O)C(=O)NC2C(=O)NC3C(=O)NC(C(=O)NC(C(=O)O)c4cc(O)cc(O)c4-c4cc3ccc4O)C(OC3CC(C)(N)C(O)C(C)O3)c3ccc(c(Cl)c3)Oc3cc2cc(c3OC2OC(CO)C(O)C(O)C2OC2CC(C)(NCc3ccc(OC)c(OCC4CCCCC4)c3)C(O)C(C)O2)Oc2ccc(cc2Cl)C1O (stereo not drawn) [Compound 142]	0.5 µg/mL (≈ 0.274 µM)	1 µg/mL (≈ 0.548 µM)	≤ 0.06 µg/mL	≤ 0.06 µg/mL	1 µg/mL (≈ 0.548 µM)	2 µg/mL (≈ 1.1 µM)	2 µg/mL (≈ 1.1 µM)	0.5 µg/mL (≈ 0.274 µM)	≤ 0.06 µg/mL	1 µg/mL (≈ 0.548 µM)	1 µg/mL (≈ 0.548 µM)	1.5 µg/mL	1 µg/mL (≈ 0.548 µM)	0.5 µg/mL (≈ 0.274 µM)	1 µg/mL (≈ 0.548 µM)	≤ 0.06 µg/mL	≤ 0.06 µg/mL	1 µg/mL (≈ 0.548 µM)	0.25 µg/mL (≈ 0.137 µM)	45 µg/mL	MIC [18]: 2 µg/mL (≈ 1.1 µM); MIC [19]: 2 µg/mL (≈ 1.1 µM)
CNC(CC(C)C)C(=O)NC1C(=O)NC(CC(N)=O)C(=O)NC2C(=O)NC3C(=O)NC(C(=O)NC(C(=O)O)c4cc(O)cc(O)c4-c4cc3ccc4O)C(OC3CC(C)(N)C(O)C(C)O3)c3ccc(c(Cl)c3)Oc3cc2cc(c3OC2OC(CO)C(O)C(O)C2OC2CC(C)(NCc3ccc(OC(=O)c4ccccc4)cc3)C(O)C(C)O2)Oc2ccc(cc2Cl)C1O (stereo not drawn) [Compound 150]	0.5 µg/mL (≈ 0.277 µM)	2 µg/mL (≈ 1.11 µM)	≤ 0.06 µg/mL	≤ 0.06 µg/mL	1 µg/mL (≈ 0.555 µM)	1 µg/mL (≈ 0.555 µM)	0.5 µg/mL (≈ 0.277 µM)	≤ 0.06 µg/mL	≤ 0.06 µg/mL	≤ 0.06 µg/mL	1 µg/mL (≈ 0.555 µM)	0.25 µg/mL	1 µg/mL (≈ 0.555 µM)	0.25 µg/mL (≈ 0.139 µM)	2 µg/mL (≈ 1.11 µM)	≤ 0.06 µg/mL	≤ 0.06 µg/mL	2 µg/mL (≈ 1.11 µM)	0.25 µg/mL (≈ 0.139 µM)	1.7 µg/mL	MIC [18]: 0.5 µg/mL (≈ 0.277 µM); MIC [19]: 0.25 µg/mL (≈ 0.139 µM)
CNC(CC(C)C)C(=O)NC1C(=O)NC(CC(N)=O)C(=O)NC2C(=O)NC3C(=O)NC(C(=O)NC(C(=O)O)c4cc(O)cc(O)c4-c4cc3ccc4O)C(OC3CC(C)(N)C(O)C(C)O3)c3ccc(c(Cl)c3)Oc3cc2cc(c3OC2OC(CO)C(O)C(O)C2OC2CC(C)(NCc3cccc(OC4CCCCC4)c3)C(O)C(C)O2)Oc2ccc(cc2Cl)C1O (stereo not drawn) [Compound 153]	1 µg/mL (≈ 0.562 µM)	0.5 µg/mL (≈ 0.281 µM)	≤ 0.06 µg/mL	≤ 0.06 µg/mL	0.5 µg/mL (≈ 0.281 µM)	0.5 µg/mL (≈ 0.281 µM)	0.5 µg/mL (≈ 0.281 µM)	0.125 µg/mL (≈ 0.0702 µM)	≤ 0.06 µg/mL	0.5 µg/mL (≈ 0.281 µM)	0.5 µg/mL (≈ 0.281 µM)	0.083 µg/mL	2 µg/mL (≈ 1.12 µM)	0.125 µg/mL (≈ 0.0702 µM)	1 µg/mL (≈ 0.562 µM)	≤ 0.06 µg/mL	≤ 0.06 µg/mL	1 µg/mL (≈ 0.562 µM)	0.25 µg/mL (≈ 0.14 µM)	1.4 µg/mL	MIC [18]: 0.25 µg/mL (≈ 0.14 µM); MIC [19]: 0.125 µg/mL (≈ 0.0702 µM)
CNC(CC(C)C)C(=O)NC1C(=O)NC(CC(N)=O)C(=O)NC2C(=O)NC3C(=O)NC(C(=O)NC(C(=O)O)c4cc(O)cc(O)c4-c4cc3ccc4O)C(OC3CC(C)(N)C(O)C(C)O3)c3ccc(c(Cl)c3)Oc3cc2cc(c3OC2OC(CO)C(O)C(O)C2OC2CC(C)(NCC3CCC(C4CCCCC4)CC3)C(O)C(C)O2)Oc2ccc(cc2Cl)C1O (stereo not drawn) [Compound 164]	2 µg/mL (≈ 1.13 µM)	1 µg/mL (≈ 0.565 µM)	≤ 0.06 µg/mL	≤ 0.06 µg/mL	1 µg/mL (≈ 0.565 µM)	2 µg/mL (≈ 1.13 µM)	2 µg/mL (≈ 1.13 µM)	1 µg/mL (≈ 0.565 µM)	0.5 µg/mL (≈ 0.282 µM)	0.5 µg/mL (≈ 0.282 µM)	2 µg/mL (≈ 1.13 µM)	0.11 µg/mL	2 µg/mL (≈ 1.13 µM)	0.5 µg/mL (≈ 0.282 µM)	2 µg/mL (≈ 1.13 µM)	1 µg/mL (≈ 0.565 µM)	≤ 0.06 µg/mL	2 µg/mL (≈ 1.13 µM)	1 µg/mL (≈ 0.565 µM)	1.7 µg/mL	MIC [18]: 2 µg/mL (≈ 1.13 µM); MIC [19]: 4 µg/mL (≈ 2.26 µM)
